The text below walks through data of PubChem BioAssay (NCI).

Among the test systems are CCRF-CEM leukemia; NCI/ADR-RES ovarian; UACC-257 melanoma; LOX IMVI melanoma; BT-549 breast; PC-3 prostate; SN12C renal; SW-620 colon; SK-MEL-5 melanoma; SF-295 CNS.
What all share (assay): NCI tumour cell line growth inhibition, 48 h

Molecules are shown by their SMILES. Where “and” joins values, the source holds several entries; their conditions need not be identical. Identical values can stand only once.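 Interpolation was linear, between the two tested concentrations surrounding the appropriate level; five concentrations were tested over 48 hours in 96-well plates. Here, GI50 denotes the concentration required for 50% inhibition of growth. The concentration for full growth arrest is given as TGI.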 Where only a bound is given, the exact number is not on record here.

Take `O=C(Nc1nc2ccccc2s1)Nc1ccc([N+](=O)[O-])cc1Cl`: the GI50 with CCRF-CEM leukemia was 2.52 µM; with NCI/ADR-RES ovarian, 2.99 µM; in the test on UACC-257 melanoma, 5.62 µM; in the test with LOX IMVI melanoma, 2.66 µM; in the test on BT-549 breast it was 2.04 µM; in the test with PC-3 prostate it was 4.26 µM. The GI50 in the test with SN12C renal is 4.36 µM; in the test with SW-620 colon, 2.86 µM; with SK-MEL-5 melanoma it was 7.3 µM; in the test with SF-295 CNS, 3.31 µM. Moreover, the TGI was over 49.4 µM with CCRF-CEM leukemia; 9.93 µM in the test on NCI/ADR-RES ovarian; 14.2 µM with UACC-257 melanoma; 6.7 µM in the test with LOX IMVI melanoma; 7.68 µM in the test with BT-549 breast; over 28.8 µM in the test with PC-3 prostate. Further, the TGI in the test with SN12C renal turned out to be 9.53 µM; in the test with SW-620 colon, 7.82 µM; in the test with SK-MEL-5 melanoma, 22.1 µM; with SF-295 CNS, 15.8 µM.

Turning to `CC(=O)[O][Hg][c]1c(C)c(C)cc(C)c1C`, the GI50 with CCRF-CEM leukemia was 0.39 µM; in the test with NCI/ADR-RES ovarian, 2.96 µM; with UACC-257 melanoma, 1.36 µM; with LOX IMVI melanoma it was 1.21 µM; with BT-549 breast, 1.86 µM; in the test with PC-3 prostate, 1.73 µM. In addition, the GI50 in the test with SN12C renal was 1.94 µM; in the test with SW-620 colon it was 0.732 µM; in the test with SK-MEL-5 melanoma, 1.8 µM; in the test on SF-295 CNS, 1.87 µM. Also, the TGI in the test on CCRF-CEM leukemia was found to be 13.5 µM; in the test on NCI/ADR-RES ovarian it was 9.14 µM; in the test with UACC-257 melanoma, 2.73 µM; with LOX IMVI melanoma it was 3.06 µM; with BT-549 breast, 3.79 µM; in the test on PC-3 prostate, 4.5 µM. The TGI in the test on SN12C renal amounted to 4.48 µM; in the test on SW-620 colon it was 2.31 µM; with SK-MEL-5 melanoma, 4.66 µM; in the test on SF-295 CNS, 4.14 µM.

In the case of `Cc1cc([N+](=O)[O-])c2ccccc2[n+]1[O-]`, the GI50 in the test on CCRF-CEM leukemia is 2.24 µM and 0.65 µM; in the test with NCI/ADR-RES ovarian it was 0.547 µM and 1.42 µM; in the test on UACC-257 melanoma, 1.71 µM and 1.49 µM; with LOX IMVI melanoma, 1.16 µM and 0.385 µM; in the test on BT-549 breast, 0.216 µM and 0.388 µM; with PC-3 prostate, 0.165 µM and 0.149 µM. Moreover, the GI50 in the test with SN12C renal is 0.278 µM and 0.27 µM; in the test on SW-620 colon, 0.0728 µM and 0.0543 µM; in the test on SK-MEL-5 melanoma it was 0.171 µM and 0.157 µM; in the test on SF-295 CNS it was 0.206 µM and 0.236 µM. The TGI in the test with CCRF-CEM leukemia is > 47.8 µM and 7.18 µM; in the test with NCI/ADR-RES ovarian, 3.45 µM and 7.68 µM; in the test with UACC-257 melanoma, 4.45 µM and 4.7 µM; with LOX IMVI melanoma, 3.48 µM and 1.87 µM; in the test with BT-549 breast, 0.879 µM and 1.63 µM; in the test with PC-3 prostate, 1.01 µM and 0.663 µM. The TGI in the test with SN12C renal was 1.8 µM and 3.09 µM; in the test on SW-620 colon, 0.766 µM and 0.523 µM; in the test with SK-MEL-5 melanoma it was 0.334 µM and 0.355 µM; in the test on SF-295 CNS it was 0.76 µM and 2 µM.

For `C#CCOc1ccc2ncnc(Nc3ccc(NC(=O)C=C)cc3)c2c1`, the GI50 in the test with CCRF-CEM leukemia is 4.26 µM; with NCI/ADR-RES ovarian, over 100 µM; in the test with UACC-257 melanoma it was 56.9 µM; with LOX IMVI melanoma, 3.92 µM; in the test on BT-549 breast, 39.3 µM; in the test with PC-3 prostate, 70.4 µM. For the same compound, the GI50 is 44 µM in the test on SN12C renal, 6.3 µM in the test with SW-620 colon, over 100 µM with SK-MEL-5 melanoma and over 100 µM in the test with SF-295 CNS. Moreover, the TGI in the test on CCRF-CEM leukemia was 40.8 µM; in the test with NCI/ADR-RES ovarian, over 100 µM; in the test on UACC-257 melanoma it was over 100 µM; with LOX IMVI melanoma, 17.5 µM; in the test on BT-549 breast it was over 100 µM; in the test on PC-3 prostate, over 100 µM. Besides, the TGI in the test with SN12C renal was over 100 µM; in the test with SW-620 colon it was 33.1 µM; with SK-MEL-5 melanoma, over 100 µM; with SF-295 CNS, over 100 µM.

Regarding `O=c1[nH]cnc2c1nnn2CCCCCCCCCCCCn1nnc2c(=O)[nH]cnc21`, the TGI in the test with CCRF-CEM leukemia, with NCI/ADR-RES ovarian, with UACC-257 melanoma, in the test with LOX IMVI melanoma, in the test on BT-549 breast and in the test on PC-3 prostate was over 100 µM in each case. In addition, the TGI in the test on SN12C renal was over 100 µM; in the test on SW-620 colon, over 100 µM; in the test with SK-MEL-5 melanoma it was over 100 µM; in the test on SF-295 CNS it was 48.4 µM.

Regarding `NS(=O)(=O)OCCCCCCCOS(N)(=O)=O`, the TGI was 1140 µM with CCRF-CEM leukemia; 1050 µM in the test with NCI/ADR-RES ovarian; 1310 µM with UACC-257 melanoma; 724 µM with LOX IMVI melanoma; 430 µM with BT-549 breast; 1240 µM with PC-3 prostate. The TGI with SN12C renal was found to be 1180 µM; in the test on SW-620 colon, 1280 µM; with SK-MEL-5 melanoma, 649 µM; with SF-295 CNS, 1020 µM.

As for `COc1nnc2ccc(N3CCC(c4ccc(OCCN5CCN(C)C(=O)[C@H]5C)cc4)CC3)nn12`, the GI50 was 0.323 µM with CCRF-CEM leukemia; 0.845 µM in the test with NCI/ADR-RES ovarian; 0.187 µM in the test on UACC-257 melanoma; 0.038 µM with LOX IMVI melanoma; 1.87 µM in the test on BT-549 breast; 0.315 µM in the test with PC-3 prostate. The GI50 with SN12C renal was 0.606 µM; in the test with SW-620 colon, 5.03 µM; in the test on SK-MEL-5 melanoma it was 0.155 µM; in the test with SF-295 CNS it was 0.206 µM. Besides, the TGI in the test on CCRF-CEM leukemia is over 100 µM; with NCI/ADR-RES ovarian it was over 100 µM; in the test with UACC-257 melanoma, over 100 µM; in the test with LOX IMVI melanoma, 4.56 µM; in the test on BT-549 breast, over 100 µM; in the test on PC-3 prostate, over 100 µM. The TGI was over 100 µM in the test with SN12C renal, over 100 µM with SW-620 colon, 13.7 µM in the test with SK-MEL-5 melanoma and over 100 µM in the test with SF-295 CNS.

On to `COc1cc(-c2nn(-c3cccc(NC(=O)c4ccc(Cl)c(C(F)(F)F)c4)c3)cc2-c2ccncc2)ccc1Cl`, for which the GI50 with CCRF-CEM leukemia is 1.77 µM; in the test on NCI/ADR-RES ovarian, 1.18 µM; in the test on UACC-257 melanoma it was 3.6 µM; with LOX IMVI melanoma it was 1.92 µM; in the test on BT-549 breast it was 4.35 µM; with PC-3 prostate, 0.798 µM. The GI50 with SN12C renal is 7.15 µM; in the test on SW-620 colon it was 2.87 µM; with SK-MEL-5 melanoma, 1.13 µM; in the test on SF-295 CNS, 1.08 µM. In addition, the TGI with CCRF-CEM leukemia is over 32.5 µM; in the test with NCI/ADR-RES ovarian it was 15 µM; in the test on UACC-257 melanoma, over 32.5 µM; in the test on LOX IMVI melanoma, over 32.5 µM; in the test on BT-549 breast it was over 32.5 µM; with PC-3 prostate, over 16.3 µM. Further, the TGI with SN12C renal is over 32.5 µM; with SW-620 colon, over 32.5 µM; in the test with SK-MEL-5 melanoma it was 8.69 µM; in the test on SF-295 CNS, 8.19 µM.

In the case of `CN1CSC(=S)N(Cc2ccccc2)C1`, the GI50 with CCRF-CEM leukemia was 18 µM; in the test with NCI/ADR-RES ovarian, 28.2 µM; with UACC-257 melanoma it was 13.7 µM; with LOX IMVI melanoma, 2.75 µM; in the test with BT-549 breast, 17.1 µM; with PC-3 prostate, 42.4 µM. In addition, the GI50 in the test on SN12C renal was 15.4 µM; in the test with SW-620 colon, 3.16 µM; in the test on SK-MEL-5 melanoma, 13.1 µM; in the test on SF-295 CNS it was 32.7 µM. The TGI in the test on CCRF-CEM leukemia was over 100 µM; in the test on NCI/ADR-RES ovarian it was over 100 µM; in the test with UACC-257 melanoma, 30.4 µM; in the test on LOX IMVI melanoma it was 11.6 µM; in the test with BT-549 breast, 70.1 µM; with PC-3 prostate, over 100 µM. For the same compound, the TGI is 35.7 µM in the test on SN12C renal, 12.4 µM with SW-620 colon, 26.1 µM in the test with SK-MEL-5 melanoma and over 100 µM with SF-295 CNS.

In the case of `c1ccc2c3c([nH]c2c1)C(c1ccc(C2NCCc4c2[nH]c2ccccc42)cc1)NCC3` (stereo not given), the GI50 is 0.452 µM in the test with CCRF-CEM leukemia; 2.1 µM with NCI/ADR-RES ovarian; 1.91 µM in the test on UACC-257 melanoma; 0.196 µM in the test with LOX IMVI melanoma; 11.1 µM in the test with BT-549 breast; 1.27 µM in the test on PC-3 prostate. Also, the GI50 is 1.47 µM with SN12C renal, 0.185 µM in the test with SW-620 colon, 1.7 µM with SK-MEL-5 melanoma and 1.62 µM in the test on SF-295 CNS. Further, the TGI in the test with CCRF-CEM leukemia came out at 2.03 µM; in the test on NCI/ADR-RES ovarian, 7.81 µM; in the test on UACC-257 melanoma, 3.52 µM; in the test on LOX IMVI melanoma, 0.45 µM; in the test with BT-549 breast, 24.4 µM; in the test on PC-3 prostate, 2.69 µM. Moreover, the TGI in the test on SN12C renal was found to be 3.05 µM; with SW-620 colon, 0.344 µM; in the test on SK-MEL-5 melanoma it was 3.13 µM; with SF-295 CNS, 3.33 µM.

In the case of `C=C1C(=O)OC2/C=C(/C)C(OC(C)=O)C/C=C(\C)C(OC(=O)C3(C)OC3C)C(O)C12` (stereo not given), the TGI in the test with CCRF-CEM leukemia, in the test with NCI/ADR-RES ovarian, in the test on UACC-257 melanoma, in the test on LOX IMVI melanoma, in the test with BT-549 breast and with PC-3 prostate was over 100 µM each time. The TGI in the test on SN12C renal, with SW-620 colon, in the test on SK-MEL-5 melanoma and in the test on SF-295 CNS was over 100 µM in each case.

Consider `CCC(=O)c1c(C(F)(F)F)n([O-])c2cc(F)c(F)cc2[n+]1=O`, for which the GI50 in the test with CCRF-CEM leukemia was 0.108 µM; with NCI/ADR-RES ovarian, 0.822 µM; with UACC-257 melanoma it was 1.5 µM; in the test with LOX IMVI melanoma it was 0.0284 µM; with BT-549 breast it was 1.52 µM; in the test on PC-3 prostate, 1.54 µM. Also, the GI50 with SN12C renal is 0.649 µM; with SW-620 colon, 0.46 µM; with SK-MEL-5 melanoma it was 1.27 µM; in the test on SF-295 CNS it was 0.37 µM. For the same compound, the TGI in the test on CCRF-CEM leukemia came out at 0.555 µM; in the test on NCI/ADR-RES ovarian, 2.35 µM; in the test on UACC-257 melanoma, 2.98 µM; in the test on LOX IMVI melanoma, 0.221 µM; in the test on BT-549 breast, 3.05 µM; in the test with PC-3 prostate, 3.06 µM. For the same compound, the TGI turned out to be 2.07 µM in the test with SN12C renal, 2.21 µM in the test on SW-620 colon, 2.74 µM in the test with SK-MEL-5 melanoma and 1.67 µM in the test on SF-295 CNS.
